Tests used:
Assay in all cases: NCI-60 SRB screen
Type in all cases: cell-based
NCI-H522 = tested on: NCI-H522
HCC-2998 = tested on: HCC-2998
OVCAR-5 = tested on: OVCAR-5
DU-145 = tested on: DU-145
NCI/ADR-RES = tested on: NCI/ADR-RES
MALME-3M = tested on: MALME-3M
SK-MEL-28 = tested on: SK-MEL-28
SF-268 = tested on: SF-268
SF-539 = tested on: SF-539
EKVX = tested on: EKVX
UACC-62 = tested on: UACC-62
UO-31 = tested on: UO-31
[1] = Homo sapiens, read-out: LC50 (the source's name)

## COc1ccc2[nH]c(=O)c(/C=C/C(=O)c3ccccc3OC)cc2c1 [CTR-20, (E)-6-Methoxy-3-(3-(2-methoxyphenyl)-3-oxoprop-1-enyl) quinolin-2(1H)-one]
NCI-H522
  Log10GI50: -6.45 Molar
  Log10LC50: -4.89 Molar
  Log10TGI: -5.69 Molar
  TGI: 2.06E-6 Molar
NCI-H522; 1.00E-5 Molar
  Growth Percent: 3.93%
NCI-H522; Homo sapiens
  GI50: 352 nM
  LC50 (concentration causing 50% net cell kill): 12900 nM
NCI-H522; Log10 Concentration -4.0
  Percent Growth: -88%
NCI-H522; Log10 Concentration -5.0
  Percent Growth: -45%
NCI-H522; Log10 Concentration -6.0
  Percent Growth: 21%
NCI-H522; Log10 Concentration -7.0
  Percent Growth: 85%
NCI-H522; Log10 Concentration -8.0
  Percent Growth: 87%
HCC-2998
  Log10GI50: -5.80 Molar
  Log10LC50: -5.23 Molar
  Log10TGI: -5.52 Molar
  TGI: 3.03E-6 Molar
HCC-2998; 1.00E-5 Molar
  Growth Percent: 23.11%
HCC-2998; Homo sapiens
  GI50: 1570 nM
HCC-2998; [1]
  CC50: 5850 nM
HCC-2998; Log10 Concentration -4.0
  Percent Growth: -91%
HCC-2998; Log10 Concentration -5.0
  Percent Growth: -91%
HCC-2998; Log10 Concentration -6.0
  Percent Growth: 84%
HCC-2998; Log10 Concentration -7.0
  Percent Growth: 97%
HCC-2998; Log10 Concentration -8.0
  Percent Growth: 99%
OVCAR-5
  Log10GI50: -5.71 Molar
  Log10LC50: -4.33 Molar
  Log10TGI: -4.98 Molar
  TGI: 1.04E-5 Molar
OVCAR-5; 1.00E-5 Molar
  Growth Percent: 12.07%
OVCAR-5; Homo sapiens
  GI50: 1970 nM
OVCAR-5; [1]
  CC50: 46600 nM
OVCAR-5; Log10 Concentration -4.0
  Percent Growth: -75%
OVCAR-5; Log10 Concentration -5.0
  Percent Growth: 1%
OVCAR-5; Log10 Concentration -6.0
  Percent Growth: 70%
OVCAR-5; Log10 Concentration -7.0
  Percent Growth: 98%
OVCAR-5; Log10 Concentration -8.0
  Percent Growth: 93%
DU-145
  Log10GI50: -6.28 Molar
  Log10LC50: -5.26 Molar
  Log10TGI: -5.71 Molar
  TGI: 1.96E-6 Molar
DU-145; 1.00E-5 Molar
  Growth Percent: 10.76%
DU-145; Homo sapiens
  GI50: 529 nM
DU-145; [1]
  CC50: 5470 nM
DU-145; Log10 Concentration -4.0
  Percent Growth: -93%
DU-145; Log10 Concentration -5.0
  Percent Growth: -79%
DU-145; Log10 Concentration -6.0
  Percent Growth: 33%
DU-145; Log10 Concentration -7.0
  Percent Growth: 95%
DU-145; Log10 Concentration -8.0
  Percent Growth: 98%
NCI/ADR-RES
  Log10GI50: -6.56 Molar
  Log10LC50: > -4.00 Molar
  Log10TGI: -4.70 Molar
  TGI: 2.00E-5 Molar
NCI/ADR-RES; 1.00E-5 Molar
  Growth Percent: 10.36%
NCI/ADR-RES; Homo sapiens
  GI50: 273 nM
NCI/ADR-RES; [1]
  CC50: > 100000 nM
NCI/ADR-RES; Log10 Concentration -4.0
  Percent Growth: -8%
NCI/ADR-RES; Log10 Concentration -5.0
  Percent Growth: 3%
NCI/ADR-RES; Log10 Concentration -6.0
  Percent Growth: 14%
NCI/ADR-RES; Log10 Concentration -7.0
  Percent Growth: 78%
NCI/ADR-RES; Log10 Concentration -8.0
  Percent Growth: 97%
MALME-3M; Homo sapiens, Malme-3M
  GI50: 766 nM
MALME-3M; Homo sapiens, Malme-3M, read-out: LC50 (the source's name)
  CC50: 30300 nM
MALME-3M; MALME-3M
  Log10GI50: -6.12 Molar
  Log10LC50: -4.52 Molar
  Log10TGI: -5.09 Molar
  TGI: 8.09E-6 Molar
MALME-3M; MALME-3M, 1.00E-5 Molar
  Growth Percent: 38.55%
MALME-3M; MALME-3M, Log10 Concentration -4.0
  Percent Growth: -99%
MALME-3M; MALME-3M, Log10 Concentration -5.0
  Percent Growth: -5%
MALME-3M; MALME-3M, Log10 Concentration -6.0
  Percent Growth: 46%
MALME-3M; MALME-3M, Log10 Concentration -7.0
  Percent Growth: 81%
MALME-3M; MALME-3M, Log10 Concentration -8.0
  Percent Growth: 92%
SK-MEL-28
  Log10GI50: -5.82 Molar
  Log10LC50: -4.54 Molar
  Log10TGI: -5.14 Molar
  TGI: 7.32E-6 Molar
SK-MEL-28; 1.00E-5 Molar
  Growth Percent: 50.45%
SK-MEL-28; Homo sapiens
  GI50: 1520 nM
SK-MEL-28; [1]
  CC50: 28500 nM
SK-MEL-28; Log10 Concentration -4.0
  Percent Growth: -98%
SK-MEL-28; Log10 Concentration -5.0
  Percent Growth: -10%
SK-MEL-28; Log10 Concentration -6.0
  Percent Growth: 63%
SK-MEL-28; Log10 Concentration -7.0
  Percent Growth: 95%
SK-MEL-28; Log10 Concentration -8.0
  Percent Growth: 96%
SF-268
  Log10GI50: -6.16 Molar
  Log10LC50: -4.15 Molar
  Log10TGI: -4.98 Molar
  TGI: 1.05E-5 Molar
SF-268; 1.00E-5 Molar
  Growth Percent: 9.36%
SF-268; Homo sapiens
  GI50: 690 nM
SF-268; [1]
  CC50: 70400 nM
SF-268; Log10 Concentration -4.0
  Percent Growth: -59%
SF-268; Log10 Concentration -5.0
  Percent Growth: 1%
SF-268; Log10 Concentration -6.0
  Percent Growth: 42%
SF-268; Log10 Concentration -7.0
  Percent Growth: 93%
SF-268; Log10 Concentration -8.0
  Percent Growth: 92%
SF-539
  Log10GI50: -6.35 Molar
  Log10LC50: -4.87 Molar
  Log10TGI: -5.60 Molar
  TGI: 2.49E-6 Molar
SF-539; 1.00E-5 Molar
  Growth Percent: -10.00%
SF-539; Homo sapiens
  GI50: 443 nM
  LC50 (concentration killing 50% of starting cells): 13400 nM
SF-539; Log10 Concentration -4.0
  Percent Growth: -99%
SF-539; Log10 Concentration -5.0
  Percent Growth: -43%
SF-539; Log10 Concentration -6.0
  Percent Growth: 28%
SF-539; Log10 Concentration -7.0
  Percent Growth: 90%
SF-539; Log10 Concentration -8.0
  Percent Growth: 90%
EKVX
  Log10GI50: -5.69 Molar
  Log10LC50: -4.25 Molar
  Log10TGI: -4.98 Molar
  TGI: 1.05E-5 Molar
EKVX; 1.00E-5 Molar
  Growth Percent: 37.76%
EKVX; Homo sapiens
  GI50: 2050 nM
EKVX; [1]
  CC50: 55800 nM
EKVX; Log10 Concentration -4.0
  Percent Growth: -67%
EKVX; Log10 Concentration -5.0
  Percent Growth: 1%
EKVX; Log10 Concentration -6.0
  Percent Growth: 72%
EKVX; Log10 Concentration -7.0
  Percent Growth: 91%
EKVX; Log10 Concentration -8.0
  Percent Growth: 86%
UACC-62
  Log10GI50: -6.32 Molar
  Log10LC50: -4.75 Molar
  Log10TGI: -5.53 Molar
  TGI: 2.97E-6 Molar
UACC-62; 1.00E-5 Molar
  Growth Percent: 25.73%
UACC-62; Homo sapiens
  GI50: 478 nM
UACC-62; [1]
  CC50: 17900 nM
UACC-62; Log10 Concentration -4.0
  Percent Growth: -95%
UACC-62; Log10 Concentration -5.0
  Percent Growth: -35%
UACC-62; Log10 Concentration -6.0
  Percent Growth: 31%
UACC-62; Log10 Concentration -7.0
  Percent Growth: 90%
UACC-62; Log10 Concentration -8.0
  Percent Growth: 94%
UO-31
  Log10GI50: -6.02 Molar
  Log10LC50: -5.28 Molar
  Log10TGI: -5.64 Molar
  TGI: 2.28E-6 Molar
UO-31; 1.00E-5 Molar
  Growth Percent: 23.62%
UO-31; Homo sapiens
  GI50: 958 nM
UO-31; [1]
  CC50: 5270 nM
UO-31; Log10 Concentration -4.0
  Percent Growth: -100%
UO-31; Log10 Concentration -5.0
  Percent Growth: -88%
UO-31; Log10 Concentration -6.0
  Percent Growth: 49%
UO-31; Log10 Concentration -7.0
  Percent Growth: 81%
UO-31; Log10 Concentration -8.0
  Percent Growth: 87%

From article PMC5578999, “Novel quinolone chalcones targeting colchicine-binding pocket kill multidrug-resistant cancer cells by inhibiting tubulin activity and MRP1 function” (Scientific Reports, 2017)
